Laboratory results published in ChEMBL document CHEMBL1201862, “PubChem BioAssay data set” (2004).
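In this assay, cells in 96-well plates receive the compound at five concentrations for 48 hours. Endpoints are linearly interpolated between the surrounding concentrations. Abbreviation: GI50, concentration required for 50% inhibition of growth.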 Calls of active or inactive are those of the source. No stated cut-off is given here; in the data, active = GI50 up to about 1.1 µM and inactive = higher.

Key:
Experiment in all cases: growth of human tumour cells (NCI), 48 h
786-0 = tested on: 786-0
A498 = tested on: A498
A549 = tested on: A549
ACHN = tested on: ACHN
BT-549 = tested on: BT-549
CAKI-1 = tested on: CAKI-1
CCRF-CEM = tested on: CCRF-CEM
COLO 205 = tested on: COLO 205
DU-145 = tested on: DU-145
EKVX = tested on: EKVX
HCC 2998 = tested on: HCC 2998
HCT-116 = tested on: HCT-116
HCT-15 = tested on: HCT-15
HL-60 = tested on: HL-60
HOP-62 = tested on: HOP-62
HT-29 = tested on: HT-29
Hs-578T = tested on: Hs-578T
IGROV-1 = tested on: IGROV-1
K562 = tested on: K562
KM12 = tested on: KM12
LOX IMVI = tested on: LOX IMVI
M14 = tested on: M14
MCF7 = tested on: MCF7
MDA-MB-231 = tested on: MDA-MB-231
MDA-MB-435 = tested on: MDA-MB-435
MDA-N = tested on: MDA-N
MOLT-4 = tested on: MOLT-4
Malme-3M = tested on: Malme-3M
NCI-H226 = tested on: NCI-H226
NCI-H23 = tested on: NCI-H23
NCI-H460 = tested on: NCI-H460
NCI-H522 = tested on: NCI-H522
OVCAR-3 = tested on: OVCAR-3
OVCAR-4 = tested on: OVCAR-4
OVCAR-5 = tested on: OVCAR-5
OVCAR-8 = tested on: OVCAR-8
PC-3 = tested on: PC-3
RPMI-8226 = tested on: RPMI-8226
RXF 393 = tested on: RXF 393
SF-268 = tested on: SF-268
SF-295 = tested on: SF-295
SF-539 = tested on: SF-539
SK-MEL-28 = tested on: SK-MEL-28
SK-MEL-2 = tested on: SK-MEL-2
SK-MEL-5 = tested on: SK-MEL-5
SK-OV-3 = tested on: SK-OV-3
SN12C = tested on: SN12C
SNB-19 = tested on: SNB-19
SNB-75 = tested on: SNB-75
SR = tested on: SR
SW-620 = tested on: SW-620
T47D = tested on: T47D
TK-10 = tested on: TK-10
U-251 = tested on: U-251
UACC-257 = tested on: UACC-257
UACC-62 = tested on: UACC-62
UO-31 = tested on: UO-31
NCI/ADR-RES = tested on: NCI/ADR-RES

In the case of `C=C1C(=O)OC2C3C(=C)[C@@H](OC(C)=O)CC3C(C)=CC(OC(=O)C(C)(O)C(C)OC(C)=O)[C@@H]12` (stereo partly drawn), the GI50 (786-0) is reported as 11.5 µM (inactive), the GI50 (A498) is reported as 16.7 µM (inactive) and the GI50 (A549) is reported as 26.2 µM (inactive). The GI50 (ACHN) was 10.4 µM (inactive), the GI50 (BT-549) was 13.6 µM (inactive) and the GI50 (CAKI-1) was 2.9 µM (inactive). The GI50 (CCRF-CEM) was 2.84 µM (inactive), the GI50 (COLO 205) was 4.15 µM (inactive) and the GI50 (DU-145) was 16.2 µM (inactive). The GI50 (EKVX) was 16.1 µM (inactive), the GI50 (HCC 2998) was 16.1 µM (inactive) and the GI50 (HCT-116) was 5.02 µM (inactive). The GI50 (HCT-15) was 10.4 µM, the GI50 (HL-60) was 2.55 µM (inactive) and the GI50 (HOP-62) was 21.3 µM (inactive). The GI50 (HT-29) was 5.09 µM (inactive), the GI50 (Hs-578T) was 12.8 µM (inactive) and the GI50 (IGROV-1) was 7.36 µM (inactive). For the same molecule, the GI50 (K562) was 3.35 µM (inactive), the GI50 (KM12) was 15.2 µM (inactive) and the GI50 (LOX IMVI) was 4.89 µM (inactive). The GI50 (M14) was 7.6 µM (inactive), the GI50 (MCF7) was 10.7 µM (inactive) and the GI50 (MDA-MB-231) was 19.8 µM (inactive). The GI50 (MDA-MB-435) was 8.93 µM (inactive), the GI50 (MDA-N) was 5.82 µM (inactive) and the GI50 (MOLT-4) was 3.04 µM (inactive). For the same molecule, the GI50 (Malme-3M) was 6.7 µM (inactive), the GI50 (NCI-H226) was 21.6 µM (inactive) and the GI50 (NCI-H23) was 13.2 µM (inactive). For the same molecule, the GI50 (NCI-H460) was 17.6 µM (inactive), the GI50 (NCI-H522) was 1.52 µM (inactive) and the GI50 (OVCAR-3) was 9.82 µM (inactive). For the same molecule, the GI50 (OVCAR-4) was 7.28 µM (inactive), the GI50 (OVCAR-5) was 11.9 µM (inactive) and the GI50 (OVCAR-8) was 20.1 µM (inactive). For the same molecule, the GI50 (PC-3) was 16.3 µM (inactive), the GI50 (RPMI-8226) was 7.18 µM (inactive) and the GI50 (RXF 393) was 3.61 µM (inactive). For the same molecule, the GI50 (SF-268) was 19.5 µM (inactive), the GI50 (SF-295) was 48.2 µM (inactive) and the GI50 (SF-539) was 13.8 µM (inactive). For the same molecule, the GI50 (SK-MEL-28) was 14 µM (inactive), the GI50 (SK-MEL-2) was 4.98 µM (inactive) and the GI50 (SK-MEL-5) was 7.4 µM (inactive). For the same molecule, the GI50 (SK-OV-3) was 80.9 µM (inactive), the GI50 (SN12C) was 14.7 µM (inactive) and the GI50 (SNB-19) was 85.5 µM (inactive). The GI50 (SNB-75) was 13.7 µM (inactive), the GI50 (SR) was 7.41 µM (inactive) and the GI50 (SW-620) was 2.88 µM (inactive). For the same molecule, the GI50 (T47D) was 19.5 µM (inactive), the GI50 (TK-10) was 3.99 µM (inactive) and the GI50 (U-251) was 16.8 µM (inactive). The GI50 (UACC-257) was 9.46 µM (inactive), the GI50 (UACC-62) was 10.6 µM (inactive) and the GI50 (UO-31) was 12.4 µM (inactive).
For `CC(C)CNC(=O)Cn1c(-c2ccccc2)cc2ccccc21`, the GI50 (786-0) was > 100 µM (inactive), the GI50 (A549) was > 100 µM (inactive) and the GI50 (ACHN) was > 100 µM (inactive). The GI50 (BT-549) was > 100 µM (inactive), the GI50 (CAKI-1) was > 100 µM (inactive) and the GI50 (CCRF-CEM) was > 100 µM (inactive). For the same molecule, the GI50 (COLO 205) was > 100 µM (inactive), the GI50 (DU-145) was > 100 µM (inactive) and the GI50 (EKVX) was > 100 µM (inactive). The GI50 (HCC 2998) was > 100 µM (inactive), the GI50 (HCT-116) was > 100 µM (inactive) and the GI50 (HCT-15) was greater than 100 µM. For the same molecule, the GI50 (HL-60) was > 100 µM (inactive), the GI50 (HOP-62) was > 100 µM (inactive) and the GI50 (HT-29) was > 100 µM (inactive). For the same molecule, the GI50 (Hs-578T) was 19.5 µM (inactive), the GI50 (IGROV-1) was > 100 µM (inactive) and the GI50 (K562) was > 100 µM (inactive). For the same molecule, the GI50 (KM12) was > 100 µM (inactive), the GI50 (LOX IMVI) was > 100 µM (inactive) and the GI50 (M14) was > 100 µM (inactive). The GI50 (MCF7) was > 100 µM (inactive), the GI50 (MDA-MB-435) was > 100 µM (inactive) and the GI50 (MDA-N) was > 100 µM (inactive). The GI50 (MOLT-4) was > 100 µM (inactive), the GI50 (Malme-3M) was > 100 µM (inactive) and the GI50 (NCI-H226) was > 100 µM (inactive). For the same molecule, the GI50 (NCI-H23) was > 100 µM (inactive), the GI50 (NCI-H460) was > 100 µM (inactive) and the GI50 (NCI-H522) was 68.1 µM (inactive). The GI50 (NCI/ADR-RES) was > 100 µM (inactive), the GI50 (OVCAR-3) was > 100 µM (inactive) and the GI50 (OVCAR-4) was > 100 µM (inactive). For the same molecule, the GI50 (OVCAR-5) was > 100 µM (inactive), the GI50 (OVCAR-8) was > 100 µM (inactive) and the GI50 (PC-3) was > 100 µM (inactive). For the same molecule, the GI50 (RPMI-8226) was > 100 µM (inactive), the GI50 (RXF 393) was > 100 µM (inactive) and the GI50 (SF-268) was > 100 µM (inactive). For the same molecule, the GI50 (SF-295) was 54.3 µM (inactive), the GI50 (SF-539) was > 100 µM (inactive) and the GI50 (SK-MEL-28) was > 100 µM (inactive). For the same molecule, the GI50 (SK-MEL-2) was > 100 µM (inactive), the GI50 (SK-MEL-5) was > 100 µM (inactive) and the GI50 (SK-OV-3) was > 100 µM (inactive). For the same molecule, the GI50 (SN12C) was > 100 µM (inactive), the GI50 (SNB-19) was > 100 µM (inactive) and the GI50 (SNB-75) was > 100 µM (inactive). For the same molecule, the GI50 (SR) was > 100 µM (inactive), the GI50 (SW-620) was > 100 µM (inactive) and the GI50 (T47D) was > 100 µM (inactive). For the same molecule, the GI50 (TK-10) was > 100 µM (inactive), the GI50 (U-251) was > 100 µM (inactive) and the GI50 (UACC-257) was > 100 µM (inactive). The GI50 (UACC-62) was > 100 µM (inactive) and the GI50 (UO-31) was > 100 µM (inactive).
